For one series, the system named is facial preadipocytes. The experiment in a line: Differentiation of human primary facial preadipocytes (lipid droplet formation, oil red O). Type of series: cell-based. The note with it: cell source not given. The protocol:
Human primary preadipocytes from facial and abdominal skin samples, obtained with informed consent, were isolated and cultured following a published procedure (Crandall et al, Endocrinology 140:154-8, 1999). Briefly, samples from abdominal or facial operations were subjected to enzymatic digestion in Krebs-Ringer-bicarbonate buffer (pH 7.4) containing 6 mM glucose and 2 mg/mL collagenase. After this initial enzymatic digestion, the content of the flask was passed through a sterile, 230-micron stainless steel tissue sieve (Cellector, Bellco Glass Inc., Vineland, N.J.) into a 50-mL sterile, plastic test tube. […]
All differentiation agents (IBMX, dexamethasone, insulin, and rosiglitazone) were added to the culture media 24 hours after the cells were seeded. […] Subsequently, the cultures were incubated with oil red O (a dye that binds to neutral lipids); the dye was then extracted and quantified by spectrophotometry. […]
Human primary preadipocytes were isolated and cultured as described in Example 2. […] Subsequently, the cultures were incubated with oil red O (a dye that binds to neutral lipids); the dye was then extracted and quantified by spectrophotometry. […]

The next series relates to serum proteins. The note with it: in vivo; cited from earlier work.

Molecules are shown by their SMILES.

With `CCCCC/C=C\C/C=C\CCCCCCCC(=O)O` [Linoleic acid, linoleic acid], in the series on facial preadipocytes (added in the media at 5-50 μM in addition to IBMX, insulin and dexamethasone), the adipogenesis of preadipocytes result was “can enhance adipogenesis of preadipocytes”. The “effect on the differentiation process” value in the series with facial preadipocytes (alone, without IBMX and dexamethasone) is reported as “could not affect the differentiation process”.

On to `CN(CCOc1ccc(CC2SC(=O)NC2=O)cc1)c1ccccn1` (stereo not drawn) [Rosiglitazone, rosiglitazone], for which the “bound to serum proteins” value in the series with serum proteins was 99.8%.

The values are drawn from patent publication US20090291066A1, “COMPOSITION AND METHOD OF TREATING FACIAL SKIN DEFECT” (priority 2008, published 2009).
